Reference: patent US20070249706A1, “USE OF CERTAIN BIPHENYL COMPOUNDS FOR PROTECTION OF NEURONS AND OLIGODENDROCYTES IN THE TREATMENT OF MULTIPLE SCLEROSIS (MS)” (AVENTIS PHARMACEUTICALS INC., priority 2004, published 2007)

Experiments:
ERα = target: T1, ERα (Homo sapiens, UniProt P03372); assay: Fluorescence Polarization Competition Assay, ERα binding (Panvera kit); conditions: first ER column
T1 construct: purchased Panvera P2698
T1 sequence (P03372 1-595): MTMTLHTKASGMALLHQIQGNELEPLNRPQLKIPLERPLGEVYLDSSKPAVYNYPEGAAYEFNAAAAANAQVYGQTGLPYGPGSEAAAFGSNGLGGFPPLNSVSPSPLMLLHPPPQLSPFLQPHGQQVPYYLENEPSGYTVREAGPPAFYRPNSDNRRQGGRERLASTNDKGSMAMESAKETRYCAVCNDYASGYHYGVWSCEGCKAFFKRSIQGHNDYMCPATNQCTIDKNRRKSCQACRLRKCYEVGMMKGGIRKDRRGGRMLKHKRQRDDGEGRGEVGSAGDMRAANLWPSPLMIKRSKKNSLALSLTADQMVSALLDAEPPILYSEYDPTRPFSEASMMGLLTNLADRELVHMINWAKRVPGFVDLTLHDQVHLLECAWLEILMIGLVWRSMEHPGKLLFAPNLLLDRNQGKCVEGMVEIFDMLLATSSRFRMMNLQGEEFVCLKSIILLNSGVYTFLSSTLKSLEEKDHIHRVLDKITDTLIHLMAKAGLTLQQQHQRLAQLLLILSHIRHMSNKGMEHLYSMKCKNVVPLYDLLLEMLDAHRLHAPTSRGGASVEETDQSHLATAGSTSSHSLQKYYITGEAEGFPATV
Description: (§1) A number of compounds were tested for ERα and ERβ binding using Panvera's Fluorescence Polarization Competition Assay Kits (cat. nos. P2698 and P2700). Briefly, ERα or ERβ were thawed on ice from −80° C. An estrogen receptor and fluorescent ligand (Fluormone™) complex was formed at a 15/1 molar ratio for ERα and at a 10/1 molar ratio for ER≈ (2X complex). Serial dilutions of the test compounds were made in assay buffer and the assay was initiated by adding 50 ul of the 2X receptor-ligand complex to 50 ul of compound solution in black 96-well plates. Zero percent competition (theoretical maximum polarization) was measured in wells containing 50 ul of buffer and 50 ul of the 2X receptor-ligand complex. The plates were incubated after gentle shaking in the dark at room temperature. Polarization values (mP) were read no longer than 7 hours after the reaction was started with a FARCyte Fluorescent reader (Amersham) at excitation and emission wavelengths of 485 nm and 535 nm, respectively. Data was analyzed using non-linear regression and IC50 values determined using GraphPad Prism. Estradiol was used as the reference compound.

ERβ = target: T2, ERβ (Homo sapiens, UniProt Q92731); assay: Fluorescence Polarization Competition Assay, ERβ binding (Panvera kit); conditions: for IC50: ER, fluorescence polarization competition; for ER[…] selectivity Fold Diff: ratio of the two ER binding IC50 values
T2 construct: purchased Panvera P2700
T2 sequence (Q92731 whole entry): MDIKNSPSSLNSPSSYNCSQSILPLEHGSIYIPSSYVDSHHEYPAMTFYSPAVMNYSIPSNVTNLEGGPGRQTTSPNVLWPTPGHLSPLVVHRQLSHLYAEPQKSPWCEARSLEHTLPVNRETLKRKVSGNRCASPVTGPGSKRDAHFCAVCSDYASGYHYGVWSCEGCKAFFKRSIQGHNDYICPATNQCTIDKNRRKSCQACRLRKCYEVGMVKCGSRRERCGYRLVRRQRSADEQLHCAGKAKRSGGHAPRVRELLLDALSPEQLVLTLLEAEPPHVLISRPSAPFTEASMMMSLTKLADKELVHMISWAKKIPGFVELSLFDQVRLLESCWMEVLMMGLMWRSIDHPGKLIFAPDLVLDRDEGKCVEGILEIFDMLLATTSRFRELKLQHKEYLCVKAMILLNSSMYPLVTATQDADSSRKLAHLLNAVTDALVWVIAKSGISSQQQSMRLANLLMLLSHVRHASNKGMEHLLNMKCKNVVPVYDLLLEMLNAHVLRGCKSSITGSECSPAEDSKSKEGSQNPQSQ
Description: as §1

[1] = system: primary rat oligodendrocyte progenitor cells; assay: Oligodendrocyte toxicity assay, protection of oligodendrocyte progenitors (OLP) against SIN-1, LDH release; type: cell-based; conditions: 10 nM compound, 1 hour pretreatment, SIN-1 toxin, LDH after 24 hours
Description: (§2) Oligodendrocyte Toxicity Assay
(§3) Primary rat oligodendrocyte progenitor cells were obtained from the cerebra of 2-3 day old postnatal rats (Sprague Dawley). The meninges were removed and tissue was mechanically dissociated. Cells were plated on T75 flasks and fed with DMEM +10% FBS.
(§4) Enriched OLPs were collected by mechanical separation from the astrocytic monolayer and were expanded in serum free media (SFM) supplemented with the mitogens, PDGF-AA (10 ng/mI) and FGF-2 (10 ng/mI).
(§5) Cells were plated in 96-well plates, 10,000 per well. Medium was changed to fresh medium and cells were pretreated with compounds for 1 hour. Toxins were added to give the following final concentrations: Sin-10 mM, Camptothecin 1 OM
(§6) After 24 hours, medium was removed and assayed for LDH activity using the Promega cytotox 96 kit (catalog# G1780). Results were calculated as percent protection against toxin-induced toxicity.
(§7) These compounds have been assessed for their efficacy in protection against cell death produced by toxic agents such as SIN-1 (3-morpholino-sydnonimine, producing peroxynitrite) and camptothecin. The target cells assessed in vitro are primary cultures of rodent oligodendrocyte progenitors and their mature counterparts.

mature oligodendrocytes = assay: Oligodendrocyte toxicity assay, protection of mature oligodendrocytes (OL) against SIN-1, LDH release; type: cell-based, rat; conditions: 10 nM compound, 1 hour pretreatment, SIN-1 toxin, LDH after 24 hours
Description: as §2, §3, §4
To generate mature oligodendrocytes, progenitor cells were switched to SFM supplemented with IGF-1 (10 ng/mi) 24 hours after plating and cells were grown under these conditions for 7 days prior to experimental assays.
as §5, §6, §7

Row | Structure (SMILES) | IC50 (ERα) [nM] | IC50 (ERβ) [nM] | ER[…] selectivity Fold Diff (ERβ) [Fold] | % Protection (SIN-1*) OLP 10 nM [1] [%] | % Protection (SIN-1*) OL 10 nM (mature oligodendrocytes) [%]
1 | OCc1cc(Br)c(-c2ccc(O)cc2)c(Br)c1 [2,6-dibromo-4′-hydroxy-[1,1′-biphenyl]-4-methanol] | 60 | 9 | 7 | 51 | 11
2 | OCc1cc(Cl)c(-c2ccc(O)cc2)c(Cl)c1 [2,6-dichloro-4′-hydroxy-[1,1′-biphenyl]-4-methanol] | 93 | 18 | 5 | 36 | 6
3 | OCc1cc(Br)c(-c2ccc(O)cc2)c(-n2cccc2)c1 [2-bromo-4′-hydroxy-6-(1H-pyrrol-1-yl)-1,1′-biphenyl]-4-methanol] | 408 | 15 | 27 | 10 | 15
4 | O=[N+]([O-])c1cc(CO)cc(Br)c1-c1ccc(O)cc1 [2-bromo-4′-hydroxy-6-nitro-[1,1′-biphenyl]-4-methanol] | 125 | 8 | 16 | 16 | 12
5 | OCc1cc(Br)c(-c2ccc(O)cc2)c(-c2ccoc2)c1 [2-bromo-6-(furan-3-yl)-4′-hydroxy-[1,1′-biphenyl]-4-methanol] | 157 | 6 | 25 | 37 | 16
6 | CN(C)c1cc(CO)cc(Br)c1-c1ccc(O)cc1 [2-bromo-6-dimethylamino-4′-hydroxy-[1,1′-biphenyl]-4-methanol] | 420 | 37 | 11 | 45 | 12
